In patent publication US9957231B2, “Iodine(II)-mediated radiofluorination” (The General Hospital Corporation, priority 2014, dated 2018):
Values belong to the molecule of their own block, whether it stands above or below them.

What was measured:
[1] = Stability of biphenyl spiroiodine(III) ylide precursors; assay type: physicochemical
Source text: Experiments with derivatives of Meldrum's acid 8a and barbituric acid 9a, based on a challenging electron-neutral biphenyl substrate, provided radiochemical conversions of 47% and 53%, respectively. Analogs incorporating substituents on the nitrogen atoms of […] were relatively unstable at room temperature, and analogues with alkyl groups other than methyl on the quaternary carbon of diesters 9b-d were not crystalline. […] Cyclobutyl 10b and cyclopentyl 10c groups provided increased conversions, 70% and 85%, respectively.

[2] = pH assay of the [^18F]FPEB dose with pH indicator paper; assay type: physicochemical; conditions: formulated dose, n = 3
Protocol: The pH of [^18F]FPEB was determined by applying a few drops of the dose to pH indicator paper. Match the reference color and the pH value conformed to our release specifications (pH=4.5-8.5).

[3] = Sterility testing in TSB and FTM media; conditions: TSB 20-25° C., FTM 30-35° C., 14 days
Protocol: Sterility testing was performed post-release and must be started within 30 hours from end of synthesis. [^18F]FPEB sample was inoculated into Trypitcase Soy Broth (TSB) and Fluid Thioglycollate Medium (FTM) media tubes. TSB tubes were incubated at 20-25° C. and FTM tubes were incubated at 30-35° C. for 14 days and must be free of culture growth after 14 days.

stability of precursor ([1]; room temperature / solid state): stable crystalline solid
SMILES: O=C1OC2(CCCCC2)OC(=O)C1=Ic1ccc(-c2ccccc2)cc1 [Example 10a, 1,5-dioxaspiro[5.5]undecane-2,4-dion-[1,1′biphenyl-4-iodonium]ylide]

thermal stability under the radiolabelling conditions ([1]; DMF, 120° C., 10 min): good thermal stability
SMILES: O=C1OC2(CCCC2)OC(=O)C1=Ic1ccc(-c2ccccc2)cc1 [Example 10c, 6,10-dioxaspiro[4.5]decane-7,9-dion-[1,1′-biphenyl-4-iodonium]ylide]

melting point: 145 to 150 °C (dec.)
SMILES: N#Cc1cc(C#Cc2ccccn2)cc(I=C2C(=O)OC3(CCCC3)OC2=O)c1 [Example 31, 3-((7,9-dioxo-6,10-dioxaspiro[4.5]decan-8-ylidene)-1.3-iodanyl)-5-(pyridin-2-ylethynyl)benzonitrile]

melting point: 175 to 176 °C
SMILES: NC(=O)c1cc(F)cc(C#Cc2ccccn2)c1 [Example 32, 3-fluoro-5-(pyridin-2-ylethynyl)benzamide]

pH Assay [2]: 5-5.5 | Sterility Testing [3]: No evidence of growth at 14 days post
SMILES: N#Cc1cc([18F])cc(C#Cc2ccccn2)c1 [[^18F]FPEB, [^18F]3-fluoro-5-(pyridin-2-ylethynyl)benzonitrile]
